Assay results taken from ChEMBL document CHEMBL1201862, “PubChem BioAssay data set” (2004).
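Grown in 96-well plates, cells were treated for 48 hours with each compound at five concentrations. Insufficient inhibition: endpoint recorded as highest concentration tested. GI50 marks 50% less growth.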 Activity calls are given as the source filed them. No stated cut-off is given here; in the data, active = GI50 up to about 1.1 µM and inactive = higher.

Experiments:
Assay in all cases: NCI tumour cell line growth inhibition, 48 h
786-0 = tested on: 786-0
A498 = tested on: A498
A549 = tested on: A549
ACHN = tested on: ACHN
BT-549 = tested on: BT-549
CAKI-1 = tested on: CAKI-1
CCRF-CEM = tested on: CCRF-CEM
COLO 205 = tested on: COLO 205
DU-145 = tested on: DU-145
EKVX = tested on: EKVX
HCC 2998 = tested on: HCC 2998
HCT-116 = tested on: HCT-116
HCT-15 = tested on: HCT-15
HL-60 = tested on: HL-60
HOP-62 = tested on: HOP-62
HOP-92 = tested on: HOP-92
HT-29 = tested on: HT-29
Hs-578T = tested on: Hs-578T
IGROV-1 = tested on: IGROV-1
K562 = tested on: K562
KM12 = tested on: KM12
LOX IMVI = tested on: LOX IMVI
M14 = tested on: M14
MCF7 = tested on: MCF7
MDA-MB-231 = tested on: MDA-MB-231
MDA-MB-435 = tested on: MDA-MB-435
MDA-N = tested on: MDA-N
MOLT-4 = tested on: MOLT-4
Malme-3M = tested on: Malme-3M
NCI-H226 = tested on: NCI-H226
NCI-H23 = tested on: NCI-H23
NCI-H460 = tested on: NCI-H460
NCI-H522 = tested on: NCI-H522
NCI/ADR-RES = tested on: NCI/ADR-RES
OVCAR-3 = tested on: OVCAR-3
OVCAR-4 = tested on: OVCAR-4
OVCAR-5 = tested on: OVCAR-5
OVCAR-8 = tested on: OVCAR-8
PC-3 = tested on: PC-3
RPMI-8226 = tested on: RPMI-8226
RXF 393 = tested on: RXF 393
SF-268 = tested on: SF-268
SF-295 = tested on: SF-295
SK-MEL-28 = tested on: SK-MEL-28
SK-MEL-2 = tested on: SK-MEL-2
SK-MEL-5 = tested on: SK-MEL-5
SK-OV-3 = tested on: SK-OV-3
SN12C = tested on: SN12C
SNB-19 = tested on: SNB-19
SNB-75 = tested on: SNB-75
SR = tested on: SR
SW-620 = tested on: SW-620
T47D = tested on: T47D
TK-10 = tested on: TK-10
U-251 = tested on: U-251
UACC-257 = tested on: UACC-257
UACC-62 = tested on: UACC-62
UO-31 = tested on: UO-31
SF-539 = tested on: SF-539

Measured: GI50

O=C1Oc2ccc([N+](=O)[O-])cc2N/C1=C\C(=O)c1ccccc1
inactive: 786-0 52.6 µM | A498 > 100 µM | A549 > 100 µM | ACHN > 100 µM | BT-549 > 100 µM | CAKI-1 > 100 µM | CCRF-CEM 43.5 µM | COLO 205 97.5 µM | DU-145 > 100 µM | EKVX > 100 µM | HCC 2998 28.1 µM | HCT-116 > 100 µM | HL-60 62.4 µM | HOP-62 > 100 µM | HOP-92 > 100 µM | HT-29 > 100 µM | Hs-578T > 100 µM | IGROV-1 > 100 µM | K562 > 100 µM | KM12 55.1 µM | LOX IMVI > 100 µM | M14 > 100 µM | MCF7 > 100 µM | MDA-MB-231 51.8 µM | MDA-MB-435 > 100 µM | MDA-N > 100 µM | MOLT-4 > 100 µM | Malme-3M > 100 µM | NCI-H226 > 100 µM | NCI-H23 > 100 µM | NCI-H460 > 100 µM | NCI-H522 76.2 µM | NCI/ADR-RES > 100 µM | OVCAR-3 > 100 µM | OVCAR-4 > 100 µM | OVCAR-5 > 100 µM | OVCAR-8 > 100 µM | PC-3 72.4 µM | RPMI-8226 > 100 µM | RXF 393 > 100 µM | SF-268 > 100 µM | SF-295 > 100 µM | SK-MEL-28 > 100 µM | SK-MEL-2 27.9 µM | SK-MEL-5 > 100 µM | SK-OV-3 > 100 µM | SN12C 62.1 µM | SNB-19 > 100 µM | SNB-75 80 µM | SR 74.1 µM | SW-620 > 100 µM | T47D 97.5 µM | TK-10 25.1 µM | U-251 78.5 µM | UACC-257 > 100 µM | UACC-62 > 100 µM | UO-31 > 100 µM
> 100 µM: HCT-15

COC(=O)C1(c2ccc(N(C)C)cc2OC)CCCN(C(=O)Oc2ccccc2[N+](=O)[O-])CCc2c1[nH]c1ccccc21 (stereo not given)
inactive: A498 > 100 µM | A549 > 100 µM | BT-549 > 100 µM | CAKI-1 > 100 µM | COLO 205 > 100 µM | DU-145 > 100 µM | EKVX > 100 µM | HCC 2998 > 100 µM | HCT-116 > 100 µM | HL-60 22.9 µM | HOP-62 > 100 µM | HOP-92 > 100 µM | HT-29 > 100 µM | Hs-578T > 100 µM | IGROV-1 > 100 µM | K562 78.3 µM | KM12 > 100 µM | LOX IMVI > 100 µM | M14 > 100 µM | MCF7 > 100 µM | MDA-MB-231 > 100 µM | MDA-MB-435 > 100 µM | MDA-N > 100 µM | MOLT-4 16.9 µM | Malme-3M > 100 µM | NCI-H226 > 100 µM | NCI-H23 > 100 µM | NCI-H460 > 100 µM | NCI-H522 > 100 µM | NCI/ADR-RES > 100 µM | OVCAR-3 > 100 µM | OVCAR-5 > 100 µM | OVCAR-8 > 100 µM | PC-3 > 100 µM | RXF 393 > 100 µM | SF-268 > 100 µM | SF-295 > 100 µM | SF-539 > 100 µM | SK-MEL-28 > 100 µM | SK-MEL-2 > 100 µM | SK-MEL-5 > 100 µM | SK-OV-3 > 100 µM | SN12C > 100 µM | SNB-75 > 100 µM | SR > 100 µM | SW-620 > 100 µM | T47D > 100 µM | TK-10 > 100 µM | U-251 > 100 µM | UACC-257 > 100 µM | UACC-62 > 100 µM | UO-31 51.4 µM
